# Measured values: ChEMBL document CHEMBL4387741, “Optimization of novel reversible Bruton's tyrosine kinase inhibitors identified using Tethering-fragment-based screens” (Bioorg Med Chem, 2019)
# Legend:
# [1] = molecular target: Tyrosine-protein kinase Lck (Homo sapiens) (UniProt P06239); test: Inhibition of wild-type human partial length LCK (R207 to P509 residues) expressed in bacterial expression system at 1 uM by Kinomescan method relative to control
# [2] = molecular target: Casein kinase I isoform alpha-like (Homo sapiens) (UniProt Q8N752); test: Inhibition of wild-type human full length CSNK1A1L (M1 to N337 residues) expressed in bacterial expression system at 1 uM by Kinomescan method relative to control
# Chain of Casein kinase I isoform alpha-like (Homo sapiens) (Q8N752 whole entry, the tested form may be a part, canonical isoform): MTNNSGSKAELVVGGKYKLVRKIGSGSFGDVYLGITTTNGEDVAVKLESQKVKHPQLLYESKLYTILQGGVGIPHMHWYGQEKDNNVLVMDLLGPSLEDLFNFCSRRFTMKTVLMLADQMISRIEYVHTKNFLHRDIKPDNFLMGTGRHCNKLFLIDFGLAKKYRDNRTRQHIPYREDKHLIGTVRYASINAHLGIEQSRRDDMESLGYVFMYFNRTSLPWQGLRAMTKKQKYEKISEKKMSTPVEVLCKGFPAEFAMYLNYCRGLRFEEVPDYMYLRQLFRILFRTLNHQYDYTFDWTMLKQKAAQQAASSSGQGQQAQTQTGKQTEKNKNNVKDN
# [3] = molecular target: Activin receptor type-1 (Homo sapiens) (UniProt Q04771); test: Inhibition of wild-type human ACVR1 (C188 to C509 residues) expressed in bacterial expression system at 1 uM by Kinomescan method relative to control
# [4] = molecular target: Serine/threonine-protein kinase tousled-like 2 (Homo sapiens) (UniProt Q86UE8); test: Inhibition of wild-type human partial length TLK2 (E424 to N749 residues) expressed in bacterial expression system at 1 uM by Kinomescan method relative to control
# [5] = molecular target: Tyrosine-protein kinase TXK (Homo sapiens) (UniProt P42681); test: Inhibition of wild-type human partial length TXK (L238 to W527 residues) expressed in bacterial expression system at 1 uM by Kinomescan method relative to control
# [6] = molecular target: Serine/threonine-protein kinase TAO1 (Homo sapiens) (UniProt Q7L7X3); test: Inhibition of wild-type human partial length TAOK1 (M1 to A320 residues) expressed in mammalian expression system at 1 uM by Kinomescan method relative to control
# Chain of Serine/threonine-protein kinase TAO1 (Homo sapiens) (Q7L7X3 whole entry, the tested form may be a part): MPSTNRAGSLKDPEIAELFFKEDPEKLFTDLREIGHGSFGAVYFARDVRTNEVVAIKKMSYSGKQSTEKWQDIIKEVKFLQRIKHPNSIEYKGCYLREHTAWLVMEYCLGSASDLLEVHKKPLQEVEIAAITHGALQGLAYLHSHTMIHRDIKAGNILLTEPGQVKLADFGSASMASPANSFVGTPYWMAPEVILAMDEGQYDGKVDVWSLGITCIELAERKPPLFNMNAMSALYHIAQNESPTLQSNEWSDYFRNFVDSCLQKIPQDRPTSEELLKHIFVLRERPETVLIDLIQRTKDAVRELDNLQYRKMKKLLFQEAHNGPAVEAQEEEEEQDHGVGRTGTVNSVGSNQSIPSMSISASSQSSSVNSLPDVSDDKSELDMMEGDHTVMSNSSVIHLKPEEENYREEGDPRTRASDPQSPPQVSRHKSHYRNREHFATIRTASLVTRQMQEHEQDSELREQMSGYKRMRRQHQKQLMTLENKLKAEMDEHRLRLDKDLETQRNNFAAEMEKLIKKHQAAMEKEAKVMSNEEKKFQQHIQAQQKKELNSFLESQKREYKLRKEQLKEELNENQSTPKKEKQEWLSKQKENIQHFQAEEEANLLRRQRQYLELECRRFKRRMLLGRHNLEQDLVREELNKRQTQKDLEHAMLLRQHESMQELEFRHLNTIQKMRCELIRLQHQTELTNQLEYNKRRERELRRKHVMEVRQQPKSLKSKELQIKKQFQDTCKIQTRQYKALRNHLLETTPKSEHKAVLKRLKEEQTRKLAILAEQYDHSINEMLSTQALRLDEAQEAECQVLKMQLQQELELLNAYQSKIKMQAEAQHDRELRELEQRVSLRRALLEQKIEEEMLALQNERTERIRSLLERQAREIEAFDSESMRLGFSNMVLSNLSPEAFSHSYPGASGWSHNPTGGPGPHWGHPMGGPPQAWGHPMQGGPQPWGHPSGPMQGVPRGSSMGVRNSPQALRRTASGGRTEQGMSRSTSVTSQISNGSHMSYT
# [7] = molecular target: Ephrin type-A receptor 3 (Homo sapiens) (UniProt P29320); test: Inhibition of wild-type human partial length EPHA3 (D604 to K889 residues) expressed in bacterial expression system at 1 uM by Kinomescan method relative to control
# [8] = molecular target: Ephrin type-B receptor 3 (Homo sapiens) (UniProt P54753); test: Inhibition of wild-type human partial length EPHB3 (Q599 to T928 residues) expressed in bacterial expression system at 1 uM by Kinomescan method relative to control
# [9] = molecular target: Activin receptor type-1B (Homo sapiens) (UniProt P36896); test: Inhibition of wild-type human ACVR1B (S187 to I505 residues) expressed in bacterial expression system at 1 uM by Kinomescan method relative to control
# [10] = test system: Epidermal growth factor receptor (Homo sapiens), P00533 [UNDEFINED MUTATION]; test: Inhibition of human partial length EGFR L747-S752del/P753S mutant expressed in bacterial expression system at 1 uM by Kinomescan method relative to control
# Chain of Epidermal growth factor receptor (Homo sapiens), P00533 [UNDEFINED MUTATION] (P00533 whole entry, looked up, stated change not applied, the tested form may be a part): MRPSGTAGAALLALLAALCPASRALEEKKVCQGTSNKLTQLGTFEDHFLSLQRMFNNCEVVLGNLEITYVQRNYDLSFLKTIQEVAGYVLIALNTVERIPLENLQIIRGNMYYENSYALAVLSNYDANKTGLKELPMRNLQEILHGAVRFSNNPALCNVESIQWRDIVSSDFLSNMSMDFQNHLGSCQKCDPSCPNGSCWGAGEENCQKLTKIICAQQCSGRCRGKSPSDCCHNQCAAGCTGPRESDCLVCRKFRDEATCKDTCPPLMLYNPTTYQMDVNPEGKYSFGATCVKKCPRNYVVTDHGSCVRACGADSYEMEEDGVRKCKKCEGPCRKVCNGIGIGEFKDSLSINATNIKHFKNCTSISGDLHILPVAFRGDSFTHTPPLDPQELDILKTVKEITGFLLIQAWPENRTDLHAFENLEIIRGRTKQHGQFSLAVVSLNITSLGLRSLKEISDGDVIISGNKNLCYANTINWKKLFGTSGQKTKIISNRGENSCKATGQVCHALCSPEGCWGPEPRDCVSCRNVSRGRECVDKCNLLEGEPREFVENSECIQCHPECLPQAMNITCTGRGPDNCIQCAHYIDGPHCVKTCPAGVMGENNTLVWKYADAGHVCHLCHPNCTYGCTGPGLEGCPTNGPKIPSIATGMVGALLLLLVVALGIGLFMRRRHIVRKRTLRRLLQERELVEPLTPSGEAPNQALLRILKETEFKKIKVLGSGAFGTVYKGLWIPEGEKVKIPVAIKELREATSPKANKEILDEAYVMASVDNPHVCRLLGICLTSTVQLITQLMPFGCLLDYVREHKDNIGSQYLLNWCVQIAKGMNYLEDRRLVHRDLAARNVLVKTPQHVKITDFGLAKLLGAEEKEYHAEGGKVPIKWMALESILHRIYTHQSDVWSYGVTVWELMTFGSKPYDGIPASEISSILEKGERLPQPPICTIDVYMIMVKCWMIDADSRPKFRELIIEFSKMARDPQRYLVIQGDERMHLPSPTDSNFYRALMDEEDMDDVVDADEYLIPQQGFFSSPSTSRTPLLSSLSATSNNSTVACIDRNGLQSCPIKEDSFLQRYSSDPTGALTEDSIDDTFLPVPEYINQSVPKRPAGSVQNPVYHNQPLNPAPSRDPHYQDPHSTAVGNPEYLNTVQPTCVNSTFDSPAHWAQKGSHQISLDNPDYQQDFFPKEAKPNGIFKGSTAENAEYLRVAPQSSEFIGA
# [11] = molecular target: Myosin light chain kinase, smooth muscle (Homo sapiens) (UniProt Q15746); test: Inhibition of wild-type human full length MYLK (M854 to E1845 residues) expressed in mammalian expression system at 1 uM by Kinomescan method relative to control
# [12] = molecular target: Receptor-interacting serine/threonine-protein kinase 2 (Homo sapiens) (UniProt O43353); test: Inhibition of wild-type human partial length RIPK2 (M1 to K310 residues) expressed in bacterial expression system at 1 uM by Kinomescan method relative to control
# [13] = molecular target: Phosphatidylinositol 4,5-bisphosphate 3-kinase catalytic subunit gamma isoform (Homo sapiens) (UniProt P48736); test: Inhibition of wild-type human partial length PIK3CG (S144 to A1102 residues) expressed in mammalian expression system at 1 uM by Kinomescan method relative to control
# [14] = molecular target: Cyclin-dependent kinase 5 (Homo sapiens) (UniProt Q00535); test: Inhibition of wild-type human full length CDK5 (M1 to P292 residues) expressed in bacterial expression system at 1 uM by Kinomescan method relative to control
# [15] = molecular target: Dual specificity protein kinase TTK (Homo sapiens) (UniProt P33981); test: Inhibition of wild-type human partial length TTK (N505 to V798 residues) expressed in bacterial expression system at 10 uM by Kinomescan method relative to control
# [16] = molecular target: Phosphorylase b kinase gamma catalytic chain, skeletal muscle/heart isoform (Homo sapiens) (UniProt Q16816); test: Inhibition of wild-type human full length PHKG1 (M1 to Y387 residues) expressed in bacterial expression system at 10 uM by Kinomescan method relative to control
# Chain of Phosphorylase b kinase gamma catalytic chain, skeletal muscle/heart isoform (Homo sapiens) (Q16816 whole entry, looked up, the tested form may be a part, canonical isoform): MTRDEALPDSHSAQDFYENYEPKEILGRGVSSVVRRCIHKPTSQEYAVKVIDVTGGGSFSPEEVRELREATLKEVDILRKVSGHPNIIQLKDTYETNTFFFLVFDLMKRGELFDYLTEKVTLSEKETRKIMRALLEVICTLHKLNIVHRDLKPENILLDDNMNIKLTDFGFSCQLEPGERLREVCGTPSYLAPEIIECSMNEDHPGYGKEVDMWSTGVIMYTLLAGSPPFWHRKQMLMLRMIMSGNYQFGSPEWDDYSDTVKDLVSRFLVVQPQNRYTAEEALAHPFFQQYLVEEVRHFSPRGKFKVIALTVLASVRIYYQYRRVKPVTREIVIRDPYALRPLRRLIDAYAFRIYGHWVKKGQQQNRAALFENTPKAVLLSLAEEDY
# [17] = molecular target: NUAK family SNF1-like kinase 1 (Homo sapiens) (UniProt O60285); test: Inhibition of wild-type human partial length ARK5 (E25 to I332 residues) expressed in bacterial expression system at 10 uM by Kinomescan method relative to control
# Chain of NUAK family SNF1-like kinase 1 (Homo sapiens) (O60285 whole entry, the tested form may be a part): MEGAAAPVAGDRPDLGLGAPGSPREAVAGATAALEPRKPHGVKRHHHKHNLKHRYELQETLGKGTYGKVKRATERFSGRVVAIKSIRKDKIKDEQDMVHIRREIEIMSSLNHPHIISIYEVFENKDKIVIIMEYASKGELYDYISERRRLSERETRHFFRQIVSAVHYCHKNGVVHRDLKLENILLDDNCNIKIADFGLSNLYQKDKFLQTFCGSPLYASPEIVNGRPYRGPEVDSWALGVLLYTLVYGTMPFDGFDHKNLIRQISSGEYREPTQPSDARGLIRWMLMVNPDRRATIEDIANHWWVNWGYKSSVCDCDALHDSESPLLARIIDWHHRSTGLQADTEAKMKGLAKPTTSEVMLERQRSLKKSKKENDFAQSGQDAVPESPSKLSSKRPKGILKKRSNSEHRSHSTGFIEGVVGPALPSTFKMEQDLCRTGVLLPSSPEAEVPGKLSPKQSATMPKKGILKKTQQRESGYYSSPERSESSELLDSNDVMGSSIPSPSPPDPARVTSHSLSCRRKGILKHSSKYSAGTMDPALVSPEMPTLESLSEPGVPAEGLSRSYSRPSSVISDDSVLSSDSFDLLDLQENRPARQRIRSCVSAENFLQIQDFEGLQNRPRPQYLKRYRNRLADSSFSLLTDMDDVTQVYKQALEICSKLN
# [18] = molecular target: Insulin receptor (Homo sapiens) (UniProt P06213); test: Inhibition of wild-type human partial length INSR (P997 to E1318 residues) expressed in mammalian expression system at 10 uM by Kinomescan method relative to control
# Chain of Insulin receptor (Homo sapiens) (P06213 28-758 limits assumed): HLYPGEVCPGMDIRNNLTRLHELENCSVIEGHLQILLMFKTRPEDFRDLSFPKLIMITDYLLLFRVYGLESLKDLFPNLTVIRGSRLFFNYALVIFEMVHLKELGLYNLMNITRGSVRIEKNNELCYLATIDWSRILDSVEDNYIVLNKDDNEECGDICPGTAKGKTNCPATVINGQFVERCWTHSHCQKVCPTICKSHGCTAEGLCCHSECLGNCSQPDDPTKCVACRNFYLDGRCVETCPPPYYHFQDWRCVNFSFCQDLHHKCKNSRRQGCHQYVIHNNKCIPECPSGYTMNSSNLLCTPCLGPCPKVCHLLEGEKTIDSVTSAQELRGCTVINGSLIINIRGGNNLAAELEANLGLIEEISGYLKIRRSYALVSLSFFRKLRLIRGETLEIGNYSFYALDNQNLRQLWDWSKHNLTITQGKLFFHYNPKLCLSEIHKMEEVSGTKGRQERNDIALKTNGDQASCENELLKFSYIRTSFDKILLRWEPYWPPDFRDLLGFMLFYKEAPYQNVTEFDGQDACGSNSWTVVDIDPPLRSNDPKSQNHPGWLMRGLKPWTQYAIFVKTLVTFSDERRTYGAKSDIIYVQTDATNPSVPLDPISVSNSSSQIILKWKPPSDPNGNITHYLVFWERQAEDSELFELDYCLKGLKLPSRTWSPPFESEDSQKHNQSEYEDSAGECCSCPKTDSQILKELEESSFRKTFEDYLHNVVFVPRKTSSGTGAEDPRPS
# Chain of Insulin receptor (Homo sapiens) (P06213 763-1382 limits assumed): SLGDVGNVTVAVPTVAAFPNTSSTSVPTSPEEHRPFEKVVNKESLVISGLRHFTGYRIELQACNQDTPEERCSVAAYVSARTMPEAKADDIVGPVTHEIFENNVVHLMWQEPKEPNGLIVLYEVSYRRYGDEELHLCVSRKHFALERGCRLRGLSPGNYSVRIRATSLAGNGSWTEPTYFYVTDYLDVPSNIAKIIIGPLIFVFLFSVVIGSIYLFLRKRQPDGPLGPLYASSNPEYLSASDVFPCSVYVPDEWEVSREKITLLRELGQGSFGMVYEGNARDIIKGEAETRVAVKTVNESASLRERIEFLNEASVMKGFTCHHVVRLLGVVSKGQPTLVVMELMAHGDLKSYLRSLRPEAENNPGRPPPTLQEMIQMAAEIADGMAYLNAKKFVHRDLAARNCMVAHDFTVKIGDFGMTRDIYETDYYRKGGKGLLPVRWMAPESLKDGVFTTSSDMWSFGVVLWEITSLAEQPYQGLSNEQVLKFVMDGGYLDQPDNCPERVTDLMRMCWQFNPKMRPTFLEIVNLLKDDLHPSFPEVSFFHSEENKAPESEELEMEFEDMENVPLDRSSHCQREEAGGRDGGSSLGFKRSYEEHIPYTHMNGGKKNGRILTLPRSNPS
# [19] = molecular target: Transient receptor potential cation channel subfamily M member 6 (Homo sapiens) (UniProt Q9BX84); test: Inhibition of wild-type human partial length TRPM6 (Q1723 to I1998 residues) expressed in mammalian expression system at 10 uM by Kinomescan method relative to control
# [20] = molecular target: Glycogen synthase kinase-3 alpha (Homo sapiens) (UniProt P49840); test: Inhibition of wild-type human full length GSK3A (M1 to S483 residues) expressed in bacterial expression system at 10 uM by Kinomescan method relative to control
# [21] = molecular target: SRSF protein kinase 2 (Homo sapiens) (UniProt P78362); test: Inhibition of wild-type human full length SRPK2 (M1 to S686 residues) expressed in bacterial expression system at 10 uM by Kinomescan method relative to control
# [22] = molecular target: Tyrosine-protein kinase Mer (Homo sapiens) (UniProt Q12866); test: Inhibition of wild-type human partial length MERTK (R557 to L884 residues) expressed in bacterial expression system at 10 uM by Kinomescan method relative to control
# [23] = molecular target: Proto-oncogene tyrosine-protein kinase receptor Ret (Homo sapiens) (UniProt P07949); test: Inhibition of wild-type human partial length RET (E713 to D1014 residues) expressed in bacterial expression system at 10 uM by Kinomescan method relative to control
# [24] = test system: Tyrosine-protein kinase ABL1 (Homo sapiens), P00519 [Q252H]; test: Inhibition of human non-phosphorylated ABL1 Q252H mutant (S229 to K512 residues) expressed in mammalian expression system at 10 uM by Kinomescan method relative to control
# [25] = molecular target: LIM domain kinase 2 (Homo sapiens) (UniProt P53671); test: Inhibition of wild-type human full length LIMK2 (M1 to P638 residues) expressed in bacterial expression system at 10 uM by Kinomescan method relative to control
# [26] = molecular target: Testis-specific serine/threonine-protein kinase 3 (Homo sapiens) (UniProt Q96PN8); test: Inhibition of wild-type human full length TSSK3 (M1 to T268 residues) expressed in mammalian expression system at 10 uM by Kinomescan method relative to control
# [27] = molecular target: Cyclin-dependent kinase 11B (Homo sapiens) (UniProt P21127); test: Inhibition of wild-type human partial length CDC2L1 (P353 to G692 residues) expressed in bacterial expression system at 10 uM by Kinomescan method relative to control
smiles,measurement,setting,value
O=C(Nc1cccc([C@@H]2CN(c3ncnc4[nH]ccc34)CCN2CCO)c1)Nc1c(F)cccc1N1CCCC1,inhibition,[1],56%
same,inhibition,[2],100%
same,inhibition,[3],100%
same,inhibition,[4],99%
same,inhibition,[5],63%
same,inhibition,[6],79%
same,inhibition,[7],100%
same,inhibition,[8],100%
same,inhibition,[9],83%
same,inhibition,[10],100%
same,inhibition,[11],100%
same,inhibition,[12],100%
same,inhibition,[13],84%
same,inhibition,[14],68%
O=C(Nc1cccc([C@H]2CCCN(c3ncnc4[nH]ccc34)C2)c1)Nc1ccccc1N1CCCC1,inhibition,[15],78%
same,inhibition,[16],91%
same,inhibition,[17],25%
same,inhibition,[18],81%
same,inhibition,[19],69%
same,inhibition,[20],100%
same,inhibition,[21],53%
same,inhibition,[22],31%
same,inhibition,[23],0%
same,inhibition,[24],25%
same,inhibition,[25],100%
same,inhibition,[26],85%
same,inhibition,[27],58%
